Measurements published in US10174023B2, “Heterocyclic-imidazole compounds, pharmaceutical compositions thereof, preparation method therefor and use thereof” (SHANGHAI HUILUN LIFE SCIENCE & TECHNOLOGY CO., LTD, priority 2015, dated 2019).
Where two headings read alike, the source gives them in different places.

Legend:
[1] = tested on: Human pancreatic cancer CAPAN-1 cells; assay: Tumor inhibition in nude mice tumor model transplanted with human pancreatic cancer CAPAN-1 cells; format: in vivo, BALB/cA-nude mice; conditions: CAPAN-1 xenograft in nude mice, oral, 50 mg/kg, once a day, consecutive 21 days
Procedure: (§1) Example 3. Test of Tumor Inhibition Effect of Compounds of the Present Invention in Mice The following experiments were conducted to evaluate and compare the effects of the present compound alone in mice tumor models transplanted with human breast cancer cell line MDA-MB-436, human breast cancer cell line MX-1 or human pancreatic cancer cell line CAPAN-1 in vivo.
(§2) Test Compound: Example Compound (4)
(§3) BALB/cA-nude mice, 6-7 weeks, female, available from Shanghai SLAC Laboratory Animal Co., Ltd. Certificate number: SCXK (Shanghai) 2012-0002. Breeding environment: SPF grade.
(§4) The Nude mice were subcutaneously inoculated with human breast cancer MDA-MB-436 cells, human breast cancer MX-1 cells or human pancreatic cancer CAPAN-1 cells. After the tumor grew to 100-200 mm^3, the animals were grouped at random (D0). The tumor volume was measured twice or thrice a week, the body weight of the mice was weighed, and the data was recorded. The tumor volume (V) is calculated by using a formula below: V=½×a×b^2 […]
(§5) in which a, and b denote the length and width. T/C(%)=(T−T0)/(C−C0)×100 in which T are C are the tumor volumes at the end of the experiment; and T0 and C0 are the tumor volumes at the beginning of the experiment.

MDA-MB-436 cells = assay: Cell proliferation inhibition assay (CellTiter-Glo, 120 hrs); format: cell-based, human; conditions: 120 hrs incubation, read-out: ED50 (MDA-MB-436)
Procedure: Example 2. Cell Proliferation Inhibition Assay
The proliferation inhibitory activity of the compound of the present invention on the breast cancer cell line MDA-MB-436 of triple negative phenotype was tested in vitro.
1. Tumor cell line MDA-MB-436 supplied from HD Biosciences (Shanghai) Co., Ltd., and passed the Mycoplasma detection.
7. CellTiter-Glo Luminescent Cell Viability Assay, Promega, Catalog #: G7571.
Formulation of Compound Solutions
1. Each test compound was formulated into a 60 mM stock solution in DMSO, packaged, and stored in a freezer at −80°. The stock solution of each test compound was serially diluted in DMSO to give solutions at various concentration gradients, including 6 mM, 2 mM, 0.6 mM, 0.2 mM, 60 μM, and 20 μM.
2. Just before experiment, the formulated solution at various concentration gradients of each test compound was aseptically 100-fold diluted in the complete cell culture medium. In this case, the concentration gradients of the test compound included 60 μM, 20 μM, 6 μM, 2 μM, 0.6 μM, and 0.2 μM. These were 2× compound solutions, and could be used to treat the cells.
3. The stock solution of Compounds (1) to (21) and the control compound AZD2281 was serially diluted in DMSO to give solutions at various concentration gradients, including 20 μM, 2 μM, 0.2 μM, 0.02 μM, 0.002 μM, and 0.0002 μM. Before experiment, the formulated solution at various concentration gradients of each test compound was aseptically 100-fold diluted in the complete cell culture medium. The concentration gradients of the positive compound included 200 nM, 20 nM, 2 nM, 0.2 nM, 0.02 nM, and 0.002 nM. These were 2× compound solutions, and could be used to treat the cells.
1. One day before treatment with the compounds, the cells were inoculated into a 96-well plate at a density of 8000 cells/50 μl/well.
2. On the following day, the formulated 2× compound solutions were added, in accordance with a compound arrangement pattern, to the plate in an amount of 50 μl/well.
3. The plate was gently agitaged, and incubated for 120 hrs in an incubator at 37° C.
4. After incubation, the formulated reagent was added to the plate following instruction of the CellTiter Glo reagent, fully mixed, and incubated for 10 min at room temperature in the dark.
5. The plate was analyzed on a plate reader, the chemiluminescence was read, and the data was recorded.
The reading of each well needs to be converted into cell viability. The cell viability can be calculated using the following formula: […]
The processed data was subjected to non-linear regression analysis by using the GraphPad Prism5 analysis software, to obtain a dose-response curve; and the median effective dose (ED50) of test compounds for the MDA-MB-436 cells was calculated.

[2] = tested on: Human breast cancer MX-1 cells; assay: Tumor inhibition in nude mice tumor model transplanted with human breast cancer MX-1 cells; format: in vivo, BALB/cA-nude mice; conditions: MX-1 xenograft in nude mice, oral, 50 mg/kg, once a day, consecutive 21 days
Procedure: as §1, §2, §3, §4, §5

[3] = tested on: Human breast cancer MDA-MB-436 cells; assay: Tumor inhibition in nude mice tumor model transplanted with human breast cancer MDA-MB-436 cells; format: in vivo, BALB/cA-nude mice; conditions: MDA-MB-436 xenograft in nude mice, oral, 30 mg/kg, once a day, consecutive 14 days
Procedure: as §1, §2, §3, §4, §5

| SMILES | IC50 (MDA-MB-436 cells; Homo sapiens) [µM] | further results |
| --- | --- | --- |
| O=C(c1cc(Cc2n[nH]c(=O)c3ccccc23)ccc1F)N1CCN(C(=O)C2CC2)CC1 [AZD2281, reference compound] | > 25 | Tumor inhibition [1]: 57%; Tumor inhibition [2]: 13%; Tumor inhibition [3]: 83% |
| O=C(c1cc(Cc2n[nH]c(=O)c3ccccc23)ccc1F)N1CCN(c2ccc3[nH]c(C(F)(F)F)nc3n2)CC1 [Compound (3)] |  | IC50 (MDA-MB-436 cells): >25 µM |
| O=C(c1cccc(Cc2n[nH]c(=O)c3ccccc23)c1)N1CCN(c2ccc3[nH]nnc3n2)CC1 [Compound (10), 4-(3-(4-(1H-[1,2,3]triazolo[4,5-b]pyridin-5-yl)piperazine-1-carbonyl)-benzyl)phthalazin-1 (2H)-one] | > 25 |  |
| Cc1nc2nc(N3CCN(C(=O)c4cccc(Cc5n[nH]c(=O)c6ccccc56)c4)CC3)ccc2[nH]1 [Compound (11), 4-(3-(4-(2-methyl-1H-imidazo[4,5-b]pyridin-5-yl)piperazine-1-carbonyl)benzyl)phthalazin-1(2H)-one] | > 25 |  |
| O=C(c1cccc(Cc2n[nH]c(=O)c3ccccc23)c1)N1CCN(c2ccc3[nH]c(C(F)(F)F)nc3n2)CC1 [Compound (12)] |  | IC50 (MDA-MB-436 cells): >25 µM |
| O=C(c1cc(Cc2n[nH]c(=O)c3ccccc23)ccc1C(F)(F)F)N1CCN(c2ccc3[nH]nnc3n2)CC1 [Compound (16), 4-(3-(4-(1H-[1,2,3]triazolo[4,5-b]pyridin-5-yl)piperazine-1-carbonyl)-4-trifluoromethylbenzyl)phthalazin-1(2H)-one] | > 25 |  |
| O=C(c1cc(Cc2n[nH]c(=O)c3ccccc23)ccc1C(F)(F)F)N1CCN(c2ccc3[nH]c(=O)[nH]c3n2)CC1 [Compound (17), 4-(3-(4-(2-oxo-2,3-dihydro-1H-imidazo[4,5-b]pyridin-5-yl)piperazine-1-carbonyl)-4-trifluoromethylbenzyl)phthalazin-1(2H)-one] | > 25 |  |
| COc1ccc(Cc2n[nH]c(=O)c3ccccc23)cc1C(=O)N1CCN(c2cc3nc[nH]c3cn2)CC1 [Compound (18), 4-(3-(4-(3H-imidazo[4,5-c]pyridin-6-yl)piperazine-1-carbonyl)-4-methoxybenzyl)phthalazin-1(2H)-one] | > 25 |  |
| O=C(c1cc(Cc2n[nH]c(=O)c3ccccc23)ccc1C(F)(F)F)N1CCN(c2cc3nc[nH]c3cn2)CC1 [Compound (19), 4-(3-(4-(3H-imidazo[4,5-c]pyridin-6-yl)piperazine-1-carbonyl)-4-trifluoromethylbenzyl)phthalazin-1(2H)-one] | > 25 |  |
| O=C(c1cc(Cc2n[nH]c(=O)c3ccccc23)ccc1C(F)(F)F)N1CCN(c2cnc3[nH]cnc3c2)CC1 [Compound (20), 4-(3-(4-(3H-imidazo[4,5-b]pyridin-6-yl)piperazine-1-carbonyl)-4-trifluoromethylbenzyl)phthalazin-1(2H)-one] | > 25 |  |
| COc1ccc(Cc2n[nH]c(=O)c3ccccc23)cc1C(=O)N1CCN(c2cnc3[nH]cnc3c2)CC1 [Compound (21), 4-(3-(4-(3H-imidazo[4,5-b]pyridin-6-yl)piperazine-1-carbonyl)-4-methoxybenzyl)phthalazin-1(2H)-one] | > 25 |  |

Now from value to molecule, other results behind:

| IC50 (MDA-MB-436 cells; Homo sapiens) [µM] | SMILES | further results |
| --- | --- | --- |
| > 25 | O=C(c1cc(Cc2n[nH]c(=O)c3ccccc23)ccc1F)N1CCN(c2ccc3[nH]nnc3n2)CC1 [Compound (1), 4-(3-(4-(1H-[1,2,3]triazolo[4,5-b]pyridin-5-yl)piperazine-1-carbonyl)-4-fluorobenzyl)phthalazin-1(2H)-one] |  |
| > 25 | Cc1nc2nc(N3CCN(C(=O)c4cc(Cc5n[nH]c(=O)c6ccccc56)ccc4F)CC3)ccc2[nH]1 [Compound (2), 4-(4-fluoro-3-(4-(2-methyl-1H-imidazo[4,5-b]pyridin-5-yl)piperazine-1-carbonyl)benzyl)phthalazin-1(2H)-one] |  |
| 0.7 | O=C(c1cc(Cc2n[nH]c(=O)c3ccccc23)ccc1F)N1CCN(c2ccc3[nH]cnc3n2)CC1 [Compound (4), 4-(3-(4-(1H-imidazo[4,5-b]pyridin-5-yl)piperazine-1-carbonyl)-4-fluorobenzyl)phthalazin-1(2H)-one] | Tumor inhibition [1]: 128%; Tumor inhibition [2]: 193%; Tumor inhibition [3]: 191% |
| > 25 | O=C(c1cc(Cc2n[nH]c(=O)c3ccccc23)ccc1F)N1CCN(c2ccc3[nH]c(=O)[nH]c3n2)CC1 [Compound (5), 4-(4-fluoro-3-(4-(2-oxo-2,3-dihydro-1H-imidazo[4,5-b]pyridin-5-yl)piperazine-1-carbonyl)benzyl)phthalazin-1(2H)-one] |  |
| 18 | O=C(c1cc(Cc2n[nH]c(=O)c3ccccc23)ccc1F)N1CCN(c2cc3nc[nH]c3cn2)CC1 [Compound (6), 4-(3-(4-(3H-imidazo[4,5-c]pyridin-6-yl)piperazine-1-carbonyl)-4-fluorobenzyl)phthalazin-1(2H)-one] |  |
| > 25 | O=C(c1cc(Cc2n[nH]c(=O)c3ccccc23)ccc1F)N1CCN(c2cnc3[nH]cnc3c2)CC1 [Compound (7), 4-(3-(4-(3H-imidazo[4,5-b]pyridin-6-yl)piperazine-1-carbonyl)-4-fluorobenzyl)phthalazin-1(2H)-one] |  |
| 1.4 | O=C(c1cc(Cc2n[nH]c(=O)c3ccccc23)ccc1F)N1CCN(c2ncc3[nH]cnc3n2)CC1 [Compound (8), 4-(3-(4-(7H-purin-2-yl)piperazine-1-carbonyl)-4-fluorobenzyl)phthalazin-1(2H)-one] |  |
| > 25 | O=C(c1cccc(Cc2n[nH]c(=O)c3ccccc23)c1)N1CCN(c2ccc3[nH]c(=O)[nH]c3n2)CC1 [Compound (9)] |  |
| 0.7 | O=C(c1cccc(Cc2n[nH]c(=O)c3ccccc23)c1)N1CCN(c2ccc3[nH]cnc3n2)CC1 [Compound (13), 4-(3-(4-(1H-imidazo[4,5-b]pyridin-5-yl)piperazine-1-carbonyl)benzyl)phthalazin-1(2H)-one] |  |
| 6.8 | COc1ccc(Cc2n[nH]c(=O)c3ccccc23)cc1C(=O)N1CCN(c2ccc3[nH]cnc3n2)CC1 [Compound (14), 4-(3-(4-(1H-imidazo[4,5-b]pyridin-5-yl)piperazine-1-carbonyl)-4-methoxybenzyl)phthalazin-1(2H)-one] |  |
| 23 | O=C(c1cc(Cc2n[nH]c(=O)c3ccccc23)ccc1C(F)(F)F)N1CCN(c2ccc3[nH]cnc3n2)CC1 [Compound (15), 4-(3-(4-(1H-imidazo[4,5-b]pyridin-5-yl)piperazine-1-carbonyl)-4-trifluoromethylbenzyl)phthalazin-1(2H)-one] |  |
